“Also recorded” adds a separate entry of the source.
Columns and labels:
[1] = tested on: LM2-4luc lung metastases in SCID mice; assay: experimental LM2-4luc lung metastasis model (IV); type: in vivo, human LM2-4luc cells in CB-17 SCID mice; conditions: for lung metastases by in vivo bioluminescent imaging: 24DPI, SU 60 mg/kg/day pretreatment, one-way ANOVA, Fig2B–D
Text: (§1) (C and G) Photographs of typical metastases in the lungs and caudal lymphatics, respectively. […] Geometric means ± 95%CI are depicted in (D and H); P values were derived by one-way ANOVA (D) and Kruskal–Wallis test (H). […] TEXT PRINTED IN THE PICTURE: (A) Vasculotide (VT): Hazard ratio = 0.13 (95% CI, 0.03 to 0.63) | (A) SU+VT: Hazard ratio = 0.19 (95% CI, 0.04 to 0.81) DOUBTS OF THE COPYIST ABOUT THIS PICTURE: Vasculotide (VT), Hazard ratio: small print; 0.13 could be 0.15 or 0.18, and the CI limits 0.03 and 0.63 are uncertain in the digits 3/5/6/8 / SU+VT, Hazard ratio: small print; 0.19 could be 0.18 or 0.16, and the CI limits 0.04 and 0.81 are uncertain in the digits / Panel A: each hazard ratio is printed under a pair of legend entries (Vehicle / Vasculotide (VT), and Sunitinib (SU) / SU+VT). Assigning it to the VT-treated arm of each pair is my assumption.
In vivo experiments were performed in strict accordance with protocols approved by the Sunnybrook Research Institute Animal Care Committee, accredited by the Canadian Council of Animal Care. All surgical, imaging, and euthanasia procedures were performed under inhaled isoflurane anesthesia. Experimental metastasis models involved injections of 10^6 tumor cells, suspended in 200 μl serum-free DMEM, into the mouse tail vein. LM2-4^luc implantations were performed on 6 to 8-week-old female CB-17 SCID mice (Charles River Canada). HT29^luc implantations were performed on 19- to 20-week-old male and 11- to 12-week-old female YFP-SCID mice (bred in-house). SN12^luc implantations were performed on 9-week-old male YFP-SCID mice. Spontaneous metastasis models involved orthotopic implantations of 2 × 10^6 LM2-4^luc cells/50 μl serum-free DMEM in the right inguinal mammary fat pads of 6-week-old female CB-17 SCID mice.
Sunitinib malate (SU), from Pfizer or LC Laboratories, and its vehicle were formulated as described before (Ebos et al, [2009]). SU was administered by oral gavage (PO), once daily, at a dose of 60 mg/kg mouse weight. Vasculotide (VT): VT synthesized at the Sunnybrook Research Institute (Toronto, ON, Canada) was used in experiments described in Fig2(A–D) and Supplementary Fig S5(A and B). VT synthesized by American Peptide (Sunnyvale, CA, USA) was used in experiments described in Fig5. VT synthesized by Bachem UK Ltd was used in experiments described in Figs1, 2(E–H), 3, 4, 6–9, Supplementary Figs S2, and S5(C and D). Lyophilized product was reconstituted in PBS to 500 μg/500 μl stock aliquots and stored at −80°C. As needed, stock aliquots were diluted with PBS to a 250 ng/50 μl working concentration and stored in 0.4–1 ml aliquots at −80°C. VT (at a standard dose of 250 ng/mouse) or its vehicle (PBS) was administered to mice by intraperitoneal (IP) injections every other day.
5. Bioluminescence imaging (BI) of tumor burden
(§2) For in vivo BI: Mice were injected intraperitoneally with 150mg/kg luciferin (Promega) 10 minutes prior to and anesthetized with isofluorane just before luminescent pseudocolor imaging (uniform settings: CCD camera locked at -105 °C, exposure=60s, f/1, subject size=1.5cm, bin=8, FOV=23.2cm, full image correction) using the IVIS 200 Imaging System (Caliper/PerkinElmer). Using the Living Image software (v2.50.1, Xenogen), weekly images were analyzed under uniform color range on grayscale photographic overlay. Total fluxes (photons/sec) were quantified within consistent regions of interest and statistically compared ideally at a timepoint before any deaths have occurred. […]

[2] = tested on: LM2-4luc lymphatic metastases in SCID mice; assay: experimental LM2-4luc lymphatic metastasis model (IV); type: in vivo, human LM2-4luc cells in CB-17 SCID mice; conditions: n = 12; for progression of lymphatic metastases (bioluminescence): VT 250 ng/2d, SU pretreatment, Kruskal–Wallis, Fig2F–H
Text: as §1
In vivo experiments were performed in strict accordance with protocols approved by the Sunnybrook Research Institute Animal Care Committee, accredited by the Canadian Council of Animal Care. All surgical, imaging, and euthanasia procedures were performed under inhaled isoflurane anesthesia. Experimental metastasis models involved injections of 10^6 tumor cells, suspended in 200 μl serum-free DMEM, into the mouse tail vein. LM2-4^luc implantations were performed on 6 to 8-week-old female CB-17 SCID mice (Charles River Canada). […]
as §2

Compound | lung metastases by in vivo bioluminescent imaging ([1]; VT 250 ng/2d, listed as SU) | progression of lymphatic metastases (bioluminescence) ([2]; listed as SU) | lung metastases by in vivo bioluminescent imaging ([1]; VT 250 ng/2d, listed as VT) | confirmatory repeats: VT trends on lung metastases and survival ([1]; Supplementary Fig S5) | survival ([1]; VT 250 ng/2d, with or without SU 60 mg/kg/day pretreatment, n = 5–6, Fig2A, listed as VT) | extension of median survival ([1]; VT 250 ng/2d IP monotherapy, n = 5–6, Fig2A) [%] | progression of lymphatic metastases (bioluminescence) [2] | survival rates ([2]; VT, Fig2E, listed as VT)
CCN(CC)CCNC(=O)c1c(C)[nH]c(/C=C2\C(=O)Nc3ccc(F)cc32)c1C [sunitinib, reference compound] | promoted lung metastases; also recorded: preferentially accelerated experimental lung metastasis, but not lymphatic metastasis | did not similarly promote lymphatic metastases; also recorded: did not accelerate their progression | – | – | – | – | – | –
CHHHRHSF [Vasculotide, 4-armed maleimide-functionalized polyethylene glycol (PEG) backbone to link together four cysteine-capped T7 peptides, that is, CHHHRHSF] | – | – | trend of reduced lung metastases; also recorded: effectively suppressing SU-induced promotion of lung metastases, as seen by IVBI (P < 0.05 | The same trends were reproduced | significant survival benefit (P = 0.01); also recorded: prolonged median survival | ~20 | no significant effect on survival rates (Fig2E) or the progression of lymphatic metastases | no significant effect on survival rates
